# Experimental data from patent US8709449B2, “Methods and compositions for improving photodynamic therapy through administration of lipids” (Biolitec Pharma Marketing Ltd, priority 2004, dated 2014).
# Experiments:
# [1] = mTHPC concentration in tumor, skin and plasma of mice after injection (Trial 1 mTHPC, Trial 2 LMF); assay type: in vivo, mouse
# Method: FIG. 1—Graph showing meta-tetra(hydroxyphenyl)chlorin (“mTHPC”) concentration in tumor, skin and blood of a mouse after a dose of 10 μg mTHPC.
# FIG. 2—Graph showing mTHPC concentration in tumor, skin and blood of a mouse after a dose of 5 μg mTHPC solubilized in Lipofundin MCT 10% (“LMF”).
# This formulation is abbreviated “LMF”.
# [2] = Skin fluorescence in a dog after simultaneous injection of mTHPC and Lipofundin; assay type: in vivo; details: mTHPC diluted in Lipofundin to 0.75 mg/ml, simultaneous bolus injection
# Method: FIG. 4—Graph of results of skin fluorescence in sarcoma and skin of a dog after simultaneous injection of mTHPC and Lipofundin.
# In this example, a standard mTHPC solution, having 4 mg of mTHPC per ml of solution (4 mg/ml), was diluted in Lipofundin until the concentration of mTHPC in the mixture is 0.75 mg/ml. The mixture was then injected, thus both the photosensitizer and phospholipids were simultaneously injected. […] As is shown in FIG. 4, after only 6 hours, the fluorescence of the skin was substantially the same as that measured prior to injection, thus the skin was no longer photosensitive after this short amount of time.
# [3] = Clinical monitoring of Foscan skin fluorescence by OBS in patients with basal-cell cancer after Foscan PDT; assay type: in vivo, human; details: ten patients
# Method: Ten patients (6 male, 4 female) with basal-cell cancer (BCC) of the skin were treated with Foscan PDT course having a drug dose of 0.05 mg/kg, a drug-light interval 48 hours, and a 50 J/cm^2 light dose. Immediately after the laser treatment these patients were given intravenous drop infusions of 10% Lipofundin (250 ml). Patients were administered a second infusion of 10% Lipofundin solution (250 ml) the next day.
# A group of ten patients (6 male, 4 female) with BCC of the skin, were administered Foscan PDT course having a drug dose of 0.05 mg/kg, a drug-light interval 48 hours, and a 50 J/cm^2 light dose. No 10% Lipofundin infusions were administered post-irradiation.
# A computer-based spectrometer Optical Biopsy System (OBS) specially tuned for clinical monitoring of skin fluorescence was used to detect and measure skin fluorescence. The OBS uses a 400 nm diode laser to induce FOSCAN fluorescence (wavelength 655 nm) which is then detected and measured by the OBS spectrometer.
# Fluorescence measurements were performed in intact skin of the cheek at certain time points after Foscan injection. Fluorescence monitoring began 2 days after Foscan administration and was continued for 7 weeks following Foscan administration. All measurements were performed by using contact tip (FD-1 Handstuck). Each fluorescence measurement was performed 4 times, all results were recorded, and the average value was used for further analysis.
structure (smiles),measurement,setting,value
"Oc1cccc(-c2c3nc(c(-c4cccc(O)c4)c4ccc([nH]4)c(-c4cccc(O)c4)c4nc(c(-c5cccc(O)c5)c5ccc2[nH]5)CC4)C=C3)c1 [mTHPC, meta-tetra(hydroxyphenyl)chlorin]",time of peak tumor concentration of mTHPC,"[1]; Trial 1: mTHPC 10 μg per mouse, Trial 2: LMF, 5 μg mTHPC per mouse solubilized in Lipofundin",24 h
same,skin concentration in Trial 1 relative to skin concentration after LMF injection,"[1]; after 24 hours, Trial 1 dose twice that of Trial 2",almost four times
same,tumor concentration in Trial 1 after 12 hours relative to peak tumor concentration in Trial 2,"[1]; mTHPC 10 μg per mouse, 12 hours, versus LMF peak",⅔
same,concentration at 24 h,"[1]; skin, other: injection (site not specified), Trial 1, mTHPC 10 μg per mouse, after 24 hours",~260 ng/g
same,skin fluorescence after injection,[2],rapid decrease in skin fluorescence
same,time after which skin fluorescence was substantially the same as prior to injection,[2],6 h
same,Number of patients exhibiting no detectable skin fluorescence as detected by OBS,"[3]; 7 days after Foscan application, Control Group: Foscan 0.05 mg/kg PDT, no Lipofundin infusions",0
same,Number of patients exhibiting no detectable skin fluorescence as detected by OBS,"[3]; 7 days after Foscan application, Experimental Group: Foscan 0.05 mg/kg PDT plus two 250 ml 10% Lipofundin infusions after irradiation",0
same,Number of patients exhibiting no detectable skin fluorescence as detected by OBS,"[3]; 14 days after Foscan application, Control Group: Foscan 0.05 mg/kg PDT, no Lipofundin infusions",0
same,Number of patients exhibiting no detectable skin fluorescence as detected by OBS,"[3]; 14 days after Foscan application, Experimental Group: Foscan 0.05 mg/kg PDT plus two 250 ml 10% Lipofundin infusions after irradiation",2
same,Number of patients exhibiting no detectable skin fluorescence as detected by OBS,"[3]; 21 days after Foscan application, Control Group: Foscan 0.05 mg/kg PDT, no Lipofundin infusions",2
same,Number of patients exhibiting no detectable skin fluorescence as detected by OBS,"[3]; 21 days after Foscan application, Experimental Group: Foscan 0.05 mg/kg PDT plus two 250 ml 10% Lipofundin infusions after irradiation",5
same,Number of patients exhibiting no detectable skin fluorescence as detected by OBS,"[3]; 28 days after Foscan application, Control Group: Foscan 0.05 mg/kg PDT, no Lipofundin infusions",7
same,Number of patients exhibiting no detectable skin fluorescence as detected by OBS,"[3]; 28 days after Foscan application, Experimental Group: Foscan 0.05 mg/kg PDT plus two 250 ml 10% Lipofundin infusions after irradiation",10
same,Number of patients exhibiting no detectable skin fluorescence as detected by OBS,"[3]; 35 days after Foscan application, Control Group: Foscan 0.05 mg/kg PDT, no Lipofundin infusions",10
same,Number of patients exhibiting no detectable skin fluorescence as detected by OBS,"[3]; 35 days after Foscan application, Experimental Group: Foscan 0.05 mg/kg PDT plus two 250 ml 10% Lipofundin infusions after irradiation",10
